Data reported in US20240034736A1, “HSD17B13 INHIBITORS AND USES THEREOF” (FL2022-001, Inc., priority 2020, published 2024).

Molecular target: Recombinant human HSD17B13 enzyme (Homo sapiens (Human), UniProt Q7Z5P4)
Experiment: HSD17b13 NAD(P)H-Glo Biochemical Assay
Conditions: 50 uM estradiol, 1 mM NAD+; read-out: HSD17β13 IC50
How it was run: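 Luminescent NAD(P)H-Glo detection (1 h, RT) quantified cofactor reduction after a 3 h, 37° C reaction of human HSD17B13 with estradiol (50 uM final) and NAD+ (1 mM final). Compounds were first pre-incubated 20 min at RT with enzyme in Tris pH 7.4 buffer containing Tween-20 and BSA.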

Sequence of Recombinant human HSD17B13 enzyme (Q7Z5P4 20-300): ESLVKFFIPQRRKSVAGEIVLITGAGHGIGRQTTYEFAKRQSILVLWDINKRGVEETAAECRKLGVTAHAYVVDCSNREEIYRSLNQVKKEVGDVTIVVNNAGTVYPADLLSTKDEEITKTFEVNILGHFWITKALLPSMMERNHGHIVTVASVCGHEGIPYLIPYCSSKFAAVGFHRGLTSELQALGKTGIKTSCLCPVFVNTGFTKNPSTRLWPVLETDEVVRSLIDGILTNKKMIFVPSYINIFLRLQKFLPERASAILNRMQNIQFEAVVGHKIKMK

Row | Structure (SMILES) | IC50 [µM]
1 | CS(=O)(=O)N1CCN(c2ccc3c(cnn3-c3cc(O)c(F)c(F)c3)n2)CC1 [Compound 21.18, 2,3-Difluoro-5-(5-(4-(methyl-sulfonyl)piperazin-1-yl)-1H-pyrazolo[4,3-b]pyridine-1-yl)-phenol] | 1 to 30
2 | CS(=O)(=O)N1CCN(c2cc3cnn(-c4cc(O)c(F)c(F)c4)c3cc2C(F)(F)F)CC1 [Compound 21.19, 2,3-Difluoro-5-(5-(4-(methyl-sulfonyl)piperazin-1-yl)-6-(trifluoromethyl)-1H-indazol-1-yl)phenol] | 1 to 30
3 | COC1CCN(c2ccc3c(cnn3-c3cc(O)c(F)c(F)c3)c2)CC1 [Compound 21.20, 2,3-Difluoro-5-(5-(4-methoxy-piperidin-1-yl)-1H-indazol-1-yl)phenol] | 0.1 to 1
4 | COC1CCN(c2cc3cnn(-c4cc(O)c(F)c(F)c4)c3cc2Cl)CC1 [Compound 21.21, 5-(6-Chloro-5-(4-methoxy-piperidin-1-yl)-1H-indazol-1-yl)-2,3-difluorophenol] | 0.1 to 1
5 | COC1CCN(c2ccc3c(cnn3-c3cc(O)c(F)c(F)c3)c2)C1 (centres unmarked) [Compound 21.22, 2,3-Difluoro-5-(5-(3-methoxy-pyrrolidin-1-yl)-1H-indazol-1-yl)phenol] | 1 to 30
6 | CS(=O)(=O)N1CCN(c2cc3cnn(-c4cc(O)c(F)c(F)c4)c3cc2C#N)CC1 [Compound 21.23, 1-(3,4-Difluoro-5-hydroxy-phenyl)-5-(4-(methylsulfonyl)-piperazin-1-yl)-1H-indazole-6-carbonitrile] | 0.1 to 1
7 | CS(=O)(=O)N1CCN(c2cc3cnn(-c4cc(O)c(F)c(F)c4)c3cc2F)CC1 [Compound 21.24, 2,3-Difluoro-5-(6-fluoro-5-(4-(methylsulfonyl)piperazin-1-yl)-1H-indazol-1-yl)phenol] | 0.1 to 1
8 | COC1CN(c2ccc3c(cnn3-c3cc(O)c(F)c(F)c3)c2)C1 [Compound 21.25, 2,3-Difluoro-5-(5-(3-methoxy-azetidin-1-yl)-1H-indazol-1-yl)phenol] | 1 to 30
9 | CS(=O)(=O)N1CCCN(c2ccc3c(cnn3-c3cc(O)c(F)c(F)c3)c2)CC1 [Compound 21.26, 2,3-Difluoro-5-(5-(4-(methyl-sulfonyl)-1,4-diazepan-1-yl)-1H-indazol-1-yl)phenol] | 0.1 to 1
10 | CS(=O)(=O)N1CC2(CN(c3ccc4c(cnn4-c4cc(O)c(F)c(F)c4)c3)C2)C1 [Compound 21.27, 2,3-Difluoro-5-(5-(6-(methyl-sulfonyl)-2,6-diazaspiro[3.3]-heptan-2-yl)-1H-indazol-1-yl)phenol] | 0.1 to 1
11 | CC(C)S(=O)(=O)N1CCN(c2cc3cnn(-c4cc(O)c(F)c(F)c4)c3cc2Cl)CC1 [Compound 21.28, 5-(6-Chloro-5-(4-(isopropyl-sulfonyl)piperazin-1-yl)-1H-indazol-1-yl)-2,3-difluoro-phenol] | 0.1 to 1
12 | CC1(C)CN(c2ccc3c(cnn3-c3cc(O)c(F)c(F)c3)c2)CCN1S(C)(=O)=O [Compound 21.29, 5-(5-(3,3-Dimethyl-4-(methyl-sulfonyl)piperazin-1-yl)-1H-indazol-1-yl)-2,3-difluoro-phenol] | 0.1 to 1
13 | CC1(C)CN(S(C)(=O)=O)CCN1c1ccc2c(cnn2-c2cc(O)c(F)c(F)c2)c1 [Compound 21.30, 5-(5-(2,2-Dimethyl-4-(methyl-sulfonyl)piperazin-1-yl)-1H-indazol-1-yl)-2,3-difluoro-phenol] | 1 to 30
14 | CS(=O)(=O)C1CN(c2ccc3c(cnn3-c3cc(O)c(F)c(F)c3)c2)C1 [Compound 21.31, 2,3-Difluoro-5-(5-(3-(methyl-sulfonyl)azetidin-1-yl)-1H-indazol-1-yl)phenol] | 0.1 to 1
15 | O=S(=O)(C1CC1)N1CCN(c2cc3cnn(-c4cc(O)c(F)c(F)c4)c3cc2Cl)CC1 [Compound 21.32, 5-(6-Chloro-5-(4-(cycloprop-ylsulfonyl)piperazin-1-yl)-1H-indazol-1-yl)-2,3-difluoro-phenol] | 0.1 to 1
16 | CC(C)S(=O)(=O)NC1CN(c2cc3cnn(-c4cc(O)c(F)c(F)c4)c3cc2Cl)C1 [Compound 21.33, N-(1-(6-Chloro-1-(3,4-difluoro-5-hydroxyphenyl)-1H-indazol-5-yl)azetidin-3-yl)propane-2-sulfonamide] | 0.1 to 1
17 | O=S(=O)(NC1CN(c2cc3cnn(-c4cc(O)c(F)c(F)c4)c3cc2Cl)C1)c1ccccc1 [Compound 21.34, N-(1-(6-Chloro-1-(3,4-difluoro-5-hydroxyphenyl)-1H-indazol-5-yl)azetidin-3-yl)benzene-sulfonamide] | 0.1 to 1
18 | CNS(=O)(=O)C1CN(c2ccc3c(cnn3-c3cc(O)c(F)c(F)c3)c2)C1 [Compound 21.35, 1-(1-(3,4-Difluoro-5-hydroxy-phenyl)-1H-indazol-5-yl)-N-methylazetidine-3-sulfonamide] | 1 to 30
19 | CN(C)S(=O)(=O)C1CN(c2ccc3c(cnn3-c3cc(O)c(F)c(F)c3)c2)C1 [Compound 21.36, 1-(1-(3,4-Difluoro-5-hydroxy-phenyl)-1H-indazol-5-yl)-N,N-dimethylazetidine-3-sulfon-amide] | 0.1 to 1
20 | O=S(=O)(CC1CC1)NC1CN(c2cc3cnn(-c4cc(O)c(F)c(F)c4)c3cc2Cl)C1 [Compound 21.37, N-(1-(6-Chloro-1-(3,4-difluoro-5-hydroxyphenyl)-1H-indazol-5-yl)azetidin-3-yl)-1-cyclo-propylmethanesulfonamide] | 0.1 to 1
21 | O=S(=O)(CC1CC1)N1CCN(c2cc3cnn(-c4cc(O)c(F)c(F)c4)c3cc2Cl)CC1 [Compound 21.38, 5-(6-Chloro-5-(4-((cycloprop-ylmethyl)sulfonyl)piperazin-1-yl)-1H-indazol-1-yl)-2,3-difluorophenol] | 0.1 to 1
22 | O=S(=O)(c1ccccc1)N1CCN(c2cc3cnn(-c4cc(O)c(F)c(F)c4)c3cc2Cl)CC1 [Compound 21.39, 5-(6-Chloro-5-(4-(phenyl-sulfonyl)piperazin-1-yl)-1H-indazol-1-yl)-2,3-difluoro-phenol] | 0.1 to 1
23 | CS(=O)(=O)N1CCN(c2cc3cnn(-c4cc(O)c(F)c(F)c4)c3cn2)CC1 [Compound 21.40, 2,3-Difluoro-5-(5-(4-(methyl-sulfonyl)piperazin-1-yl)-1H-pyrazolo[3,4-c]pyridine-1-yl)-phenol] | 0.1 to 1

Continued, values first:

Row | IC50 [µM] | Structure (SMILES)
24 | 0.1 to 1 | CS(=O)(=O)N1CCN(c2cc3cnn(-c4cc(O)c(F)c(C(F)(F)F)c4)c3cn2)CC1 [Compound 21.41, 2-Fluoro-5-(5-(4-(methyl-sulfonyl)piperazin-1-yl)-1H-pyrazolo[3,4-c]pyridine-1-yl)-3-(trifluoromethyl)phenol]
25 | 0.1 to 1 | Oc1cc(-n2ncc3cc(N4CCCCC4)ncc32)cc(C(F)(F)F)c1F [Compound 21.42, 2-Fluoro-5-(5-(piperidin-1-yl)-1H-pyrazolo[3,4-c]pyridine-1-yl)-3-(trifluoromethyl)phenol]
26 | 0.1 to 1 | CC1(C)CCN(c2cc3cnn(-c4cc(O)c(F)c(C(F)(F)F)c4)c3cn2)CC1 [Compound 21.43, 5-(5-(4,4-Dimethylpiperidin-1-yl)-1H-pyrazolo[3,4-c]-pyridine-1-yl)-2-fluoro-3-(trifluoromethyl)phenol]
27 | < 0.1 | Oc1cc(-n2ncc3cc(N4CCC5(CC4)CC5)ncc32)cc(C(F)(F)F)c1F [Compound 21.44, 5-(5-(6-Azaspiro[2.5]octan-6-yl)-1H-pyrazolo[3,4-c]pyridine-1-yl)-2-fluoro-3-(trifluoro-methyl)phenol]
28 | 0.1 to 1 | CS(=O)(=O)N1CCN(c2ccc3c(cnn3-c3cc(O)c(F)c(C(F)(F)F)c3)c2)C2(CC2)C1 [Compound 21.45, 2-Fluoro-5-(5-(7-(methyl-sulfonyl)-4,7-diazaspiro[2.5]-octan-4-yl)-1H-indazol-1-yl)-3-(trifluoromethyl)phenol]
29 | 0.1 to 1 | CS(=O)(=O)N1CCN(c2ccc3c(cnn3-c3cc(O)c(F)c(C(F)(F)F)c3)c2)C2(CCC2)C1 [Compound 21.46, 2-Fluoro-5-(5-(8-(methyl-sulfonyl)-5,8-diazaspiro[3.5]-nonan-5-yl)-1H-indazol-1-yl)-3-(trifluoromethyl)phenol]
30 | 0.1 to 1 | CC1CN(S(C)(=O)=O)CCN1c1ccc2c(cnn2-c2cc(O)c(F)c(C(F)(F)F)c2)c1 (centres unmarked) [Compound 21.47, 2-Fluoro-5-(5-(2-methyl-4-(methylsulfonyl)piperazin-1-yl)-1H-indazol-1-yl)-3-(trifluoromethyl)phenol]
31 | 1 to 30 | CC1(C)CN(S(C)(=O)=O)CCN1c1ccc2c(cnn2-c2cc(O)c(F)c(C(F)(F)F)c2)c1 [Compound 21.48, 5-(5-(2,2-Dimethyl-4-(methyl-sulfonyl)piperazin-1-yl)-1H-indazol-1-yl)-2-fluoro-3-(trifluoromethyl)phenol]
32 | 0.1 to 1 | CS(=O)(=O)N1CCN(c2cc3cnn(-c4cc(O)c(F)c(F)c4)c3cc2C2CC2)CC1 [Compound 21.49, 5-(6-Cyclopropyl-5-(4-(meth-ylsulfonyl)piperazin-1-yl)-1H-indazol-1-yl)-2,3-difluoro-phenol]
33 | 0.1 to 1 | Cc1nn(-c2cc(O)c(F)c(C(F)(F)F)c2)c2cnc(N3CCN(S(C)(=O)=O)CC3)cc12 [Compound 21.50, 2-Fluoro-5-(3-methyl-5-(4-(methylsulfonyl)piperazin-1-yl)-1H-pyrazolo[3,4-c]-pyridine-1-yl)-3-(trifluoro-methyl)phenol]
34 | 0.1 to 1 | CS(=O)(=O)N1CCN(c2cc3c(C4CC4)nn(-c4cc(O)c(F)c(C(F)(F)F)c4)c3cn2)CC1 [Compound 21.51, 5-(3-Cyclopropyl-5-(4-(meth-ylsulfonyl)piperazin-1-yl)-1H-pyrazolo[3,4-c]pyridine-1-yl)-2-fluoro-3-(trifluoromethyl)-phenol]
35 | 0.1 to 1 | CS(=O)(=O)N1CCN(c2ncc3c(cnn3-c3cc(O)c(F)c(C(F)(F)F)c3)n2)CC1 [Compound 21.52, 2-Fluoro-5-(5-(4-(methyl-sulfonyl)piperazin-1-yl)-1H-pyrazolo[4,3-d]pyrimidin-1-yl)-3-(trifluoromethyl)phenol]
